Results from ChEMBL document CHEMBL1629605, “Effect of a single dose of ritonavir on the pharmacokinetic behavior of elvucitabine, a nucleoside reverse transcriptase inhibitor, administered in healthy volunteers” (Antimicrob Agents Chemother, 2009).

Tests used:
[1] = AUC (0 to t) in human at 20 mg administered under fasting condition; type: ADME, organism-based; settings: plasma
[2] = Apparent oral clearance in human at 20 mg administered under fasting condition presence of 300 mg of ritonavir; type: ADME, organism-based; settings: in vivo
[3] = Tmax in human at 20 mg administered under fasting condition; type: ADME, organism-based; settings: in vivo
Homo sapiens [4] = test: Time prior to start absorption at second absorption site in human at 20 mg administered under fasting condition; type: ADME, organism-based; settings: in vivo
Homo sapiens [5] = test: Absorption rate constant at second absorption site in human at 20 mg administered under fasting condition; type: ADME, organism-based; settings: in vivo
clinical = settings: human, in vivo
Description: Cmax in human at 20 mg administered under fasting condition in presence of 300 mg of ritonavir

[6] = Tmax in human at 20 mg administered under fasting condition in presence of 300 mg of ritonavir; type: ADME, organism-based; settings: in vivo
[7] = AUC (0 to infinity) in human at 20 mg administered under fasting condition; type: ADME, organism-based; design: dose 20 mg, time infinity; settings: plasma
[8] = Volume of distribution at steady state with respect to the bioavailability in human at 20 mg administered under fasting condition; type: ADME, organism-based; settings: in vivo, read-out: Vss/F
[9] = Apparent oral clearance in human at 20 mg administered under fasting condition; type: ADME, organism-based; settings: in vivo
[10] = Clearance in human at 20 mg administered under fasting condition; type: ADME, organism-based; settings: in vivo
Homo sapiens [11] = test: Peripheral volume of distribution with respect to the bioavailability in human at 20 mg administered under fasting condition presence of 300 mg of ritonavir; type: ADME, organism-based; settings: in vivo
Homo sapiens [12] = test: Time prior to start absorption at first absorption site in human at 20 mg administered under fasting condition presence of 300 mg of ritonavir; type: ADME, organism-based; settings: in vivo
[13] = Central volume of distribution with respect to the bioavailability in human at 20 mg administered under fasting condition; type: ADME, organism-based; settings: in vivo, read-out: Vc/F
Homo sapiens [14] = test: Absorption rate constant at second absorption site in human at 20 mg administered under fasting condition presence of 300 mg of ritonavir; type: ADME, organism-based; settings: in vivo
Homo sapiens [15] = test: Distributional clearance with respect to the bioavailability in human at 20 mg administered under fasting condition; type: ADME, organism-based; settings: in vivo
Homo sapiens [16] = test: Central volume of distribution with respect to the bioavailability in human at 20 mg administered under fasting condition presence of 300 mg of ritonavir; type: ADME, organism-based; settings: in vivo
Homo sapiens [17] = test: Time prior to start absorption at second absorption site in human at 20 mg administered under fasting condition presence of 300 mg of ritonavir; type: ADME, organism-based; settings: in vivo
[18] = Cmax in human at 20 mg administered under fasting condition; settings: in vivo
[19] = AUC (0 to t) in human at 20 mg administered under fasting condition in presence of 300 mg of ritonavir; type: ADME, organism-based; settings: plasma
[20] = Terminal half life in human at 20 mg administered under fasting condition; type: ADME, organism-based; settings: in vivo, read-out: beta t1/2 (converted)
Homo sapiens [21] = test: Peripheral volume of distribution with respect to the bioavailability in human at 20 mg administered under fasting condition; type: ADME, organism-based; settings: in vivo
[22] = Terminal half life in human at 20 mg administered under fasting condition presence of 300 mg of ritonavir; type: ADME, organism-based; settings: in vivo, read-out: beta t1/2 (converted)
Homo sapiens [23] = test: Absorption rate constant at first absorption site in human at 20 mg administered under fasting condition presence of 300 mg of ritonavir; type: ADME, organism-based; settings: in vivo
[24] = AUC (0 to 24 hrs) in human at 20 mg administered under fasting condition in presence of 300 mg of ritonavir; type: ADME, organism-based; design: time < 24 hr, dose 20 mg; settings: plasma
Homo sapiens [25] = test: Absorption rate constant at first absorption site in human at 20 mg administered under fasting condition; type: ADME, organism-based; settings: in vivo
[26] = AUC (0 to infinity) in human at 20 mg administered under fasting condition in presence of 300 mg of ritonavir; type: ADME, organism-based; design: dose 20 mg, time infinity; settings: plasma
[27] = Half life in human at 20 mg administered under fasting condition in presence of 300 mg of ritonavir; type: ADME, organism-based; settings: in vivo
[28] = Clearance in human at 20 mg administered under fasting condition in presence of 300 mg of ritonavir; type: ADME, organism-based; settings: in vivo
[29] = Half life in human at 20 mg administered under fasting condition; type: ADME, organism-based; settings: in vivo
[30] = AUC (0 to 24 hrs) in human at 20 mg administered under fasting condition; type: ADME, organism-based; design: time < 24 hr, dose 20 mg; settings: plasma
[31] = Volume of distribution at steady state with respect to the bioavailability in human at 20 mg administered under fasting condition presence of 300 mg of ritonavir; type: ADME, organism-based; settings: in vivo, read-out: Vss/F
Homo sapiens [32] = test: Time prior to start absorption at first absorption site in human at 20 mg administered under fasting condition; type: ADME, organism-based; settings: in vivo
Homo sapiens [33] = test: Distributional clearance with respect to the bioavailability in human at 20 mg administered under fasting condition presence of 300 mg of ritonavir; type: ADME, organism-based; settings: in vivo

SMILES: Nc1nc(=O)n([C@@H]2C=C[C@H](CO)O2)cc1F [ELVUCITABINE]
- AUC(0-t) [1]: 1030 ng·h/mL
- CL/F [2]: 487 mL/min
- Tmax [3]: 3.78 h
- Time (Homo sapiens [4]): 2.3 h
- ka (Homo sapiens [5]): 0.459 h⁻¹
- Cmax (clinical): 102 ng/mL
- Tmax [6]: 5.12 h
- AUC(0-inf) [7]: 1240 ng·h/mL
- Vd/F [8]: 729 L
- CL/F [9]: 297 mL/min
- clearance [10]: 293 mL/min
- Vp/F (Homo sapiens [11]): 897 L
- Time (Homo sapiens [12]): 2.96 h
- Vd/F [13]: 26.1 L
- ka (Homo sapiens [14]): 0.483 h⁻¹
- CLd/F (Homo sapiens [15]): 16.3 L/h
- Vc/F (Homo sapiens [16]): 24.8 L
- Time (Homo sapiens [17]): 3.54 h
- Cmax [18]: 136 ng/mL
- AUC(0-t) [19]: 790 ng·h/mL
- half-life [20]: 58.6 h
- Vp/F (Homo sapiens [21]): 703 L
- half-life [22]: 60.2 h
- ka (Homo sapiens [23]): 0.127 h⁻¹
- AUC(0-t) at 24 h [24]: 568 ng·h/mL
- ka (Homo sapiens [25]): 0.183 h⁻¹
- AUC(0-inf) [26]: 979 ng·h/mL
- half-life [27]: 54.2 h
- clearance [28]: 467 mL/min
- half-life [29]: 59.1 h
- AUC(0-t) at 24 h [30]: 732 ng·h/mL
- Vd/F [31]: 921 L
- Time (Homo sapiens [32]): 1.6 h
- CLd/F (Homo sapiens [33]): 19.3 L/h
